Experiments:
[1] = test system: MHC class I; experiment: MHC class I binding assay (UV-exchange, β2m ELISA); parameters: species or system human; conditions: yield of UV-exchange reaction
Protocol: Candidate peptides for T cell based therapies according to the present invention were further tested for their MHC binding capacity (affinity). The individual peptide-MHC complexes were produced by exchange with the peptide of interest as analyzed. Only peptide candidates that can effectively bind and stabilize the peptide-receptive MHC molecules prevent dissociation of the MHC complexes. To determine the yield of the exchange reaction, an ELISA was performed based on the detection of the light chain (β2m) of stabilized MHC complexes. The assay was performed as generally described in Rodenko et al. (Rodenko, B. et al., Nat Protoc. 1 (2006): 1120-1132).
96 well MAXISorp plates (NUNC) were coated over night with 2 ug/ml streptavidin in PBS at room temperature, washed 4× and blocked for 1 h at 37° C. in 2% BSA containing blocking buffer. Refolded HLA-A*0201/MLA-001 monomers served as standards, covering the range of 15-500 ng/ml. Peptide-MHC monomers of the UV-exchange reaction were diluted 100 fold in blocking buffer. Samples were incubated for 1 h at 37° C., washed four times, incubated with 2 μg/ml HRP conjugated anti-β2m for 1 h at 37° C., washed again and detected with TMB solution that is stopped with […]. Absorption was measured at 450 nm. Candidate peptides that show a high exchange yield (preferably higher than 50%, most preferred higher than 75%) are generally preferred for a generation and production of antibodies or fragments thereof, and/or T cell receptors or fragments thereof, as they show sufficient avidity to the MHC molecules and prevent dissociation of the MHC complexes.
MHC class I binding scores for the peptides as tested were; <20%=+; 20%-49%=++; 50%−75%=+++; >=75%=++++

[2] = test system: HLA-DR4; experiment: REVEAL MHC-peptide binding assay; parameters: species or system human; conditions: for binding / complex formation: HLA-DR4; for stability of the formed HLA-peptide complex: HLA-DR4, after 24 h at 37° C.; for binding score: HLA-DR4, compared to the positive control, over 15% = strong binding
Protocol: (§1) The promiscuous binding of GALNT7-001 and ERGIC1-001 to various HLA-DR haplotypes and the stability of the formed complexes was assessed in an in vitro binding assay.
(§2) The seven investigated HLA-DR haplotypes are selected according to their frequencies in HLA-A*02- and HLA-A*24-positive North American populations. Data are derived from the analysis of 1.35 million HLA-typed volunteers registered in the National Marrow Donor Program (Mori M, Beatty P G, Graves M, Boucher K M, Milford E L (1997). HLA gene and haplotype frequencies in the North American population: the National Marrow Donor Program Donor Registry. Transplantation 64, 1017-1027). The analyzed population was subdivided in the following ethnic groups: Caucasian Americans (N=997,193), African Americans (N=110,057), Asian Americans (N=81,139), Latin Americans (N=100,128), and Native Americans (N=19,203).
(§3) The MHC-peptide binding assay as used determined the ability of each candidate peptide to bind to the selected HLA class II haplotype and stabilize the HLA-peptide complex. For this, the candidate peptides are assembled in vitro with a particular HLA class II protein.
(§4) The binding capacity of a candidate peptide to a particular HLA molecule is compared to a reference peptide with known very strong binding properties (positive control) for each HLA haplotype. Experimental standard errors derive from binding experiments of triplicated positive controls.
(§5) Besides the affinity of a peptide to a particular HLA molecule, the enduring stability of the formed HLA-peptide complex is crucial for the occurrence of an immune response. For this reason the presence of the formed HLA-peptide complex is measured after its incubation for 24 h at 37° C. The stability of the formed MHC-peptide complex is calculated as a ratio of the binding scores at 24 h and the binding scores which are received right after the refolding (accordingly at time 0) in percent.

[3] = test system: HLA-DR1; experiment: REVEAL MHC-peptide binding assay; parameters: species or system human; conditions: for binding / complex formation: HLA-DR1; for stability of the formed HLA-peptide complex: HLA-DR1, after 24 h at 37° C.
Protocol: as §1, §2, §3, §4, §5

[4] = test system: HLA-DR3; experiment: REVEAL MHC-peptide binding assay; parameters: species or system human
Protocol: as §1, §2, §3, §4, §5

[5] = test system: HLA-DR6; experiment: REVEAL MHC-peptide binding assay; parameters: species or system human
Protocol: as §1, §2, §3, §4, §5

[6] = test system: HLA-DR5; experiment: REVEAL MHC-peptide binding assay; parameters: species or system human; conditions: for binding / complex formation: HLA-DR5; for stability of the formed HLA-peptide complex: HLA-DR5, after 24 h at 37° C.
Protocol: as §1, §2, §3, §4, §5

[7] = test system: HLA-DR7; experiment: REVEAL MHC-peptide binding assay; parameters: species or system human; conditions: for binding / complex formation: HLA-DR7; for stability of the formed HLA-peptide complex: HLA-DR7, after 24 h at 37° C.
Protocol: as §1, §2, §3, §4, §5

[8] = target: HLA-DR2 (Homo sapiens, UniProt P01903+P01911); experiment: REVEAL MHC-peptide binding assay; conditions: for binding / complex formation: HLA-DR2
Chain of HLA-DR2 (P01903 26-216 limits assumed): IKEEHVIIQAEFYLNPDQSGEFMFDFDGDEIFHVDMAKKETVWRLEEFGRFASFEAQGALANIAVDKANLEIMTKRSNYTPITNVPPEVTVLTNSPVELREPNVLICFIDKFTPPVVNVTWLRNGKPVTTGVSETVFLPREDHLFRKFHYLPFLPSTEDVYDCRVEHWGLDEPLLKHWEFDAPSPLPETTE
Chain of HLA-DR2 (P01911 30-227 limits assumed): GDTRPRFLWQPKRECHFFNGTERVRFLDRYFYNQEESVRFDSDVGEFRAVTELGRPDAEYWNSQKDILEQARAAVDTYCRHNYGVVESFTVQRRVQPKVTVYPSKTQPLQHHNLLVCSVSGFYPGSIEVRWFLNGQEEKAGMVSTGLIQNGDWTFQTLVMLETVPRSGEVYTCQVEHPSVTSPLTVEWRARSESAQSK
Protocol: as §1, §2, §3, §4, §5

[9] = test system: HLA-DR haplotypes; experiment: REVEAL MHC-peptide binding assay, panel of seven HLA-DR haplotypes; parameters: species or system human; conditions: for number of formed HLA-peptide complexes stable for at least 24 h: of 5 formed complexes, 37° C.; for number of HLA-DR haplotypes with considerable binding capacity / number of HLA-DR haplotypes with which a complex was formed: of 7 investigated HLA-DR haplotypes
Protocol: as §1, §2, §3, §4, §5

[10] = test system: AML patient PBMC; experiment: 12-day recall IFN-γ ELISPOT assay, HLA class II LiTAPs, AML patient PBMC; type: cell-based, human; conditions: HLA class II peptide
Protocol: (§6) PBMC from AML patients and healthy volunteers were cultured in RPMI1640 medium (Gibco) supplemented with 10% pooled human serum (PHS, produced in-house), […] β-mercaptoethanol (Roth, Karlsruhe, Germany) and 1% penicillin/streptomycin (GE). For CD8^+ T cell stimulation, PBMC were thawed and pulsed with 1 μg/ml per peptide. Peptide-pulsed PBMC (5-6×10^6 cells/ml) were cultured at 37° C. and 5% CO2 for 12 days. On day 0 and day 1, 5 ng/ml IL-4 (R&D Systems, Minneapolis, Minn., USA) and 5 ng/ml IL-7 (Promokine, Heidelberg, Germany) were added to the culture medium. On days 3, 5, 7 and 9, 2 ng/ml IL-2 (R&D Systems) were added to the culture medium. Peptide-stimulated PBMC were functionally characterized by ELISPOT assays on day 12 and by intracellular cytokine staining on day 13 respectively. For CD4^+ T-cell stimulation, culture was performed as described for CD8^+ T cells with 2 modifications: pulsing was carried out with 10 μg/ml of HLA class II peptide and no IL-4 and IL-7 was added.
(§7) IFN-γ ELISPOT assays were carried out as described previously (Widenmeyer M, Griesemann H, Stevanovic S, Feyerabend S, Klein R, Attig S, et al. Promiscuous survivin peptide induces robust CD4+ T-cell responses in the majority of vaccinated cancer patients. Int J Cancer. 2012 Jul. 1; 131(1):140-9). In brief, 96-well nitrocellulose plates (Millipore) were coated with 1 mg/ml IFN-γ mAb (Mabtech, Cincinnati, Ohio, USA) and incubated over night at 4° C. Plates were blocked with 10% PHS for 2 h at 37° C. 5×10^5 cells/well of pre-stimulated PBMC were pulsed with 1 μg/ml (HLA class I) or 2.5 μg/ml (HLA class II) peptide and incubated for 24-26 h. Readout was performed according to manufacturer's instructions. Spots were counted using an ImmunoSpot S5 analyzer (CTL, Shaker Heights, Ohio, USA). T cell responses were considered to be positive when >15 spots/well were counted and the mean spot count per well was at least 3-fold higher than the mean number of spots in the negative control wells (according to the cancer immunoguiding program (CIP) guidelines).

[11] = test system: healthy donor PBMC; experiment: Cross-checking IFN-γ ELISPOT assay, HLA class II LiTAPs, healthy donor PBMC; type: cell-based, human; conditions: HLA class II peptide
Protocol: as §6, §7

36 (SLLYKVPYV; listed as Homo sapiens) [compound 36]
Peptide exchange (MHC class I binding score) [1]: ++++ (>=75%=++++)

54 (AVIEAEKIAQV; listed as Homo sapiens) [compound 54]
Peptide exchange (MHC class I binding score) [1]: ++++ (>=75%=++++)

FEGQFSINKVPGNFHVS (listed as Homo sapiens) [SEQ ID NO 604]
binding / complex formation [2]: form a complex
stability of the formed HLA-peptide complex [2]: stable
binding score [2]: ≥ 15%
binding / complex formation [3]: form a complex
stability of the formed HLA-peptide complex [3]: stable
binding / complex formation [4]: did not bind
binding / complex formation [5]: did not bind
binding / complex formation [6]: form a complex
stability of the formed HLA-peptide complex [6]: stable
binding score ([6]; HLA-DR5, compared to the positive control, over 15% = strong binding): ≥ 15%
binding / complex formation [7]: form a complex
stability of the formed HLA-peptide complex [7]: stable
binding / complex formation [8]: form a complex
number of formed HLA-peptide complexes stable for at least 24 h [9]: 4
number of HLA-DR haplotypes with considerable binding capacity [9]: at least 2
number of HLA-DR haplotypes with which a complex was formed [9]: 5

GNQLFRINEANQLMQ (listed as Homo sapiens) [SEQ ID NO 597]
binding / complex formation [2]: form a complex
stability of the formed HLA-peptide complex [2]: stable
binding score [2]: over 15%
binding / complex formation [3]: form a complex
stability of the formed HLA-peptide complex [3]: stable
binding score ([3]; HLA-DR1, compared to the positive control, over 15% = strong binding): over 15%
binding / complex formation [4]: did not bind
binding / complex formation [5]: did not bind
binding / complex formation [6]: form a complex
stability of the formed HLA-peptide complex [6]: stable
binding / complex formation [7]: form a complex
stability of the formed HLA-peptide complex [7]: stable
binding score ([7]; HLA-DR7, compared to the positive control, over 15% = strong binding): over 15%
binding / complex formation [8]: form a complex
binding score ([8]; HLA-DR2, compared to the positive control, over 15% = strong binding): over 15%
number of formed HLA-peptide complexes stable for at least 24 h [9]: 4
number of HLA-DR haplotypes with considerable binding capacity [9]: at least 4
number of HLA-DR haplotypes with which a complex was formed [9]: 5

251 (VLGGKAFLEHL; listed as Homo sapiens) [compound 251]
Peptide exchange (MHC class I binding score) [1]: ++++ (>=75%=++++)

TEGQFVDLTGNRLTYT (listed as Homo sapiens) [SEQ ID NO 544]
T cell responses (IFN-γ ELISPOT), share of AML patients [10]: 13.3%
T cell responses (IFN-γ ELISPOT) in AML patients (positive/tested) ([10]; listed as P[[I]]II3): significant increase in IFN-γ production
T cell responses (IFN-γ ELISPOT) in AML patients (positive/tested) ([10]; listed as P^II3): 2/15
IFN-γ secretion in ELISPOT, healthy donor PBMC (positive/tested) [11]: 0/8

HRSFVDLSGHNLANPHP (listed as Homo sapiens) [SEQ ID NO 478]
T cell responses (IFN-γ ELISPOT), share of AML patients [10]: 26.7%
T cell responses (IFN-γ ELISPOT) in AML patients (positive/tested) ([10]; listed as PII1): significant increase in IFN-γ production
T cell responses (IFN-γ ELISPOT) in AML patients (positive/tested) ([10]; listed as P^II1): 4/15
IFN-γ secretion in ELISPOT, healthy donor PBMC (positive/tested) [11]: 0/8

266 (KLQEQLAQL; listed as Homo sapiens) [compound 266]
Peptide exchange (MHC class I binding score) [1]: ++++ (>=75%=++++)

SPNIVIALSGNKADLA (listed as Homo sapiens) [SEQ ID NO 558]
T cell responses (IFN-γ ELISPOT), share of AML patients [10]: 20.0%
T cell responses (IFN-γ ELISPOT) in AML patients (positive/tested) ([10]; listed as P[[I]]II2): significant increase in IFN-γ production
T cell responses (IFN-γ ELISPOT) in AML patients (positive/tested) ([10]; listed as P^II2): 3/15
IFN-γ secretion in ELISPOT, healthy donor PBMC (positive/tested) [11]: 0/8
